Laboratory results published in patent US5075322A, “Selenophen derivatives, a preparation process of the same and therapeutical compositions containing them” (Societe de Conseils de Recherches et d'Applications …, priority 1989, dated 1991).

What was measured:
[1] = tested on: histamine induced bronchospasm; assay: histamine-induced bronchospasm in artificially ventilated anaesthetized guinea pigs; type: in vivo; conditions: Cavia porcellus, po, 1 h, read-out: ED50 (P.O.)
rat washed platelets = assay: PAF-induced aggregation of rat washed platelets in vitro; type: cell-based; conditions: Platelet, PAF 5.10^-10 M
Text: In vitro: effects on aggregation (IC50) induced by PAF (5·10^-10 M), rat washed platelets are as follow: IC50 Compound XI 2.10^-6 M. IC50 Ketotifen 10^-5 M.

[2] = tested on: ovalbumine-induced bronchospasm; assay: ovalbumine-induced bronchoconstriction in passively sensitized rats; type: in vivo; conditions: for Percentage of bronchoconstriction / Percentage of effect: Table IV
Text: (§1) The different symbols NS, *, ** and *** which may be found in the different tables, mean that the result is respectively not significative, significative, very significative and highly significative.

[3] = tested on: B.S.A.-induced immune lethality in mice; assay: B.S.A.-induced immune lethality (anaphylactic shock) in actively sensitized mice; type: in vivo
Text: as §1
At the same dose, ketotifen has no effect.

[4] = tested on: histamine induced bronchospasm; assay: histamine-induced bronchospasm in artificially ventilated anaesthetized guinea pigs; type: in vivo; conditions: for % of bronchoconstriction / % of effect: Table V, 0.1 mg/kg PO
Description: as §1
The kinetic results of the administration of compound XI and ketotifen by oral route at 0.1 mg/kg (P.O.), 1 to 27 h histamine injection (15 mg IV), are reported in table 5.

PAF induced bronchospasm = assay: PAF-induced bronchospasm in artificially-ventilated anaesthetized guinea pigs; type: in vivo; conditions: for Percentage of bronchoconstriction / Percentage of effect: Table VII, PAF 60 mg/kg IV
Text: as §1

[5] = anti-allergic activity (general statements)
[6] = tested on: ovalbumine-induced bronchospasm; assay: ovalbumine-induced bronchospasm in anaesthetized passively sensitized guinea-pigs; type: in vivo
Description: In the ovalbumine-induced bronchospasm in anaesthetized passively sensitized guinea-pigs, compound XI and ketotifen, administered 1 hour before the injection of ovalbumine, inhibit the bronchoconstriction (>90%) in a dose-dependant-manner respectively with following ED50 (P.O.)
For both products, the activity disappears at 24 hours.
The kinetic results, after administration by oral route of the said compounds at 0.1 mg/kg and 0.05 mg/kg (P.O.), for 1 to several hours before ovalbumine injection (1 mg/kg), are reported respectively in tables 1 and 2.
as §1

[7] = tested on: ovalbumine-induced bronchospasm; assay: ovalbumine-induced bronchospasm in actively sensitized guinea pigs; type: in vivo; conditions: Table III, 0.1 mg/kg PO
Text: as §1

[8] = Table I, 0.1 mg/kg PO, pretreatment 1 h
[9] = Table I, 0.1 mg/kg PO, pretreatment 3 h
[10] = Table I, 0.1 mg/kg PO, pretreatment 6 h
[11] = Table I, 0.1 mg/kg PO, pretreatment 9 h
[12] = Table I, 0.1 mg/kg PO, pretreatment 15 h
[13] = Table I, 0.1 mg/kg PO, pretreatment 18 h
[14] = Table I, 0.1 mg/kg PO, pretreatment 21 h
[15] = Table I, 0.1 mg/kg PO, pretreatment 24 h
[16] = Table II, 0.05 mg/kg PO, pretreatment 1 h
[17] = Table II, 0.05 mg/kg PO, pretreatment 3 h
[18] = Table II, 0.05 mg/kg PO, pretreatment 6 h
[19] = Table II, 0.05 mg/kg PO, pretreatment 9 h
[20] = Table II, 0.05 mg/kg PO, pretreatment 15 h
[21] = Table II, 0.05 mg/kg PO, pretreatment 18 h
[22] = Table II, 0.05 mg/kg PO, pretreatment 21 h

## CN1CCC(=C2c3ccccc3CC(=O)c3[se]ccc32)CC1 [Compound XI, 4-(1-methyl 4-piperidyliden) 9,10-dihydro 4H-benzo [4,5] cyclohepta [1,2-b] selenophen 10-one]
[1]
  ED50: 0.0169 µmol/kg
Rat washed platelets
  IC50: 2000 nM
[2]; 0.1 mg/kg PO
  Percentage of bronchoconstriction: 18.1 ± 6.3%
  Percentage of effect: -49.4%
[2]; 1 mg/kg PO
  Percentage of bronchoconstriction: 11.2 ± 2.7%
  Percentage of effect: -68.7%
[2]; passively sensitized rats
  inhibition of bronchoconstriction (in words): inhibits the bronchoconstriction in a dose-dependant manner
[3]; 0.275 mg/kg P.O.
  protective effect (in words): shows a protective effect
[3]; 0.275 mg/kg PO
  Mortality at 24 hours, % of mortality: 20%
  Mortality at 24 hours, % of variation: -67.5%
  Mortality at 24 hours, number of killed: 2/10
[3]; 0.550 mg/kg PO
  Mortality at 24 hours, % of mortality: 10%
  Mortality at 24 hours, % of variation: -83.7%
  Mortality at 24 hours, number of killed: 1/10
[4]; 1 h
  % of bronchoconstriction: 2.0 ± 0.8%
  % of effect: -97.5 ± 1.0%
[4]; 3 h
  % of bronchoconstriction: 1.0 ± 1.0%
  % of effect: -98.8 ± 1.2%
[4]; 6 h
  % of bronchoconstriction: 5.4 ± 3.2%
  % of effect: -93.5 ± 3.8%
[4]; 9 h
  % of bronchoconstriction: 4.9 ± 1.7%
  % of effect: -93.6 ± 2.3%
[4]; 15 h
  % of bronchoconstriction: 36.6 ± 8.4%
  % of effect: -48.2 ± 11.8%
[4]; 18 h
  % of bronchoconstriction: 34.9 ± 18.1%
  % of effect: 61.7 ± 19.9%
[4]; 21 h
  % of bronchoconstriction: 52.9 ± 9.7%
  % of effect: 37.6 ± 11.5%
[4]; 24 h
  % of bronchoconstriction: 37.9 ± 9.9%
  % of effect: -42.3 ± 15.0%
[4]; 27 h
  % of bronchoconstriction: 76.8 ± 10.2%
  % of effect: +6.3 ± 14.1%
[4]; administered 1 hour before histamine (15 mg IV)
  inhibition of bronchoconstriction (in words): inhibit significantly the bronchoconstriction in a dose-dependant-manner
[4]; during the first hours, 0.1 mg/kg P.O.
  duration of total inhibition of the bronchospasm: 9 h
PAF induced bronchospasm; 1 hour before PAF, 0.1 mg/kg
  inhibition of PAF induced bronchospasm (in words): significantly inhibits the bronchospasm
PAF induced bronchospasm; 0.1 mg/kg PO
  Percentage of bronchoconstriction: 29.4 ± 7.9%
  Percentage of effect: -62.5%
PAF induced bronchospasm; 1 mg/kg PO
  Percentage of bronchoconstriction: 23.0 ± 9.7%
  Percentage of effect: -70.6%
[5]
  anti-allergic activity compared with compound X: higher activity than compound X
[5]; oral drug
  histamine and ovalbumine antagonist activity: powerful histamine and ovalbumine antagonist
[6]; 0.1 mg/kg and 0.05 mg/kg P.O.
  time at which the activity disappears: 24 h
[6]; Cavia porcellus, po, 1 h, read-out: ED50 (P.O.)
  ED50: 0.0572 µmol/kg
[6]; [8]
  % of bronchoconstriction: 6.9 ± 1.0%
  % of effect: -91.5 ± 1.3%
[6]; [9]
  % of bronchoconstriction: 3.9 ± 1.1%
  % of effect: -93.7 ± 1.7%
[6]; [10]
  % of bronchoconstriction: 15.0 ± 11.5%
  % of effect: -75.9 ± 18.4%
[6]; [11]
  % of bronchoconstriction: 35.7 ± 18.8%
  % of effect: -60.1 ± 21.1%
[6]; [12]
  % of bronchoconstriction: 38.9 ± 13.7%
  % of effect: -50.7 ± 17.3%
[6]; [13]
  % of bronchoconstriction: 36.8 ± 17.5%
  % of effect: -62.0 ± 18.1%
[6]; [14]
  % of bronchoconstriction: 73.3 ± 14.2%
  % of effect: -24.3 ± 14.7%
[6]; [15]
  % of bronchoconstriction: 45.4 ± 15.2%
  % of effect: -27.1 ± 24.4%
[6]; [16]
  % of bronchoconstriction: 13.2 ± 5.4%
  % of effect: -85.1%
[6]; [17]
  % of bronchoconstriction: 17.7 ± 7.0%
  % of effect: -80.5%
[6]; [18]
  % of bronchoconstriction: 38.3 ± 16.5%
  % of effect: -60.4%
[6]; [19]
  % of bronchoconstriction: 49.2 ± 16.7%
  % of effect: -49.2%
[6]; [20]
  % of bronchoconstriction: 61.6 ± 18.7%
  % of effect: -6.5%
[6]; [21]
  % of bronchoconstriction: 50.7 ± 20.4%
  % of effect: -48.3%
[6]; [22]
  % of bronchoconstriction: 94.6 ± 4.4%
  % of effect: -3.5%
[6]; administered 1 hour before ovalbumine, P.O., dose-dependent
  inhibition of bronchoconstriction: > 90%
[7]; pretreatment 1 h
  % of bronchoconstriction: 3.5 ± 1.1%
  % of effect: -96.1 ± 1.3%
[7]; pretreatment 3 h
  % of bronchoconstriction: 5.0 ± 1.6%
  % of effect: -93.4 ± 2.1%
[7]; pretreatment 6 h
  % of bronchoconstriction: 2.1 ± 0.6%
  % of effect: -97.3 ± 0.8%
[7]; pretreatment 9 h
  % of bronchoconstriction: 35.5 ± 15.9%
  % of effect: -61.1 ± 22.2%
[7]; pretreatment 15 h
  % of bronchoconstriction: 42.2 ± 16.6%
  % of effect: -50.6 ± 19.5%
[7]; pretreatment 18 h
  % of bronchoconstriction: 67.1 ± 19.0%
  % of effect: +22.7 ± 34.8%
[7]; pretreatment 21 h
  % of bronchoconstriction: 50.1 ± 21.6%
  % of effect: -8.3 ± 39.5%
